Patent US20140173781A1, “METHODS AND COMPOSITIONS FOR PRODUCING AND SELECTING TRANSGENIC WHEAT PLANTS” (PIONEER HI-BRED INTERNATIONAL, INC., priority 2012, published 2014)

Key:
Format in all cases: in vivo
soybean seeds = test: Germination of soybean T1 immature seeds on glyphosate medium; settings: 20-50 μM glyphosate; transgenic and nontransgenic soybean seeds without desiccation treatment
Procedure: (§1) T1 immature pods from transgenic soybean plants are harvested, sterilized with 15% Clorox+2 drops of Tween 20 and rinsed with autoclaved water 3 times. Immature seeds are isolated from sterilized pods and placed on sterile fiber glass filter paper in a Petri dish. The Petri dish is […] and with 20-50 μM glyphosate for selection. One to 2 weeks later, DsRed expression is checked in the emerging shoots. Immature seeds that have been properly desiccated will have very weak or no DsRed expression as the gene is excised via the LoxP sites. […] Immature seeds that successfully underwent gene excision by desiccation will have glyphosate resistance and regenerate on medium containing 20-50 μM glyphosate.

sugarcane plants = test: Glyphosate spray test on sugarcane T0 plantlets; settings: 4× glyphosate
Procedure: T0 plantlets were then moved to soil and spray tested with 4× glyphosate to confirm excision/glyphosate resistance. […] The final confirmation of stable transformation frequency is determined based on molecular analysis such as PCR and Southern blot hybridization.

tobacco seeds = test: Germination of tobacco T1 immature seeds on glyphosate medium; settings: 20-50 μM glyphosate; transgenic and nontransgenic tobacco seeds without desiccation treatment
Procedure: as §1, with “immature seeds” for “immature pods”, “transgenic tobacco” for “transgenic soybean”, “are isolated,” for “are harvested,”, “times. Sterilized immature” for “times. Immature”, “are” for “are isolated from sterilized pods and”, “desiccated” for “desiccated will”

[1] = tested on: maize inbred PHR03 plants; test: Glyphosate spray test on plants germinated from T1 mature corn seed; settings: glyphosate+surfactant at 2× or 4×
Source text: Immature embryos of maize inbred PHR03 were transformed with the excision vector AGL1/PHP54353, the expression of DsRed was visually confirmed, and T0 plantlets were regenerated as described in Example 5. Before moving the T0 plantlets to soil, the expression of DsRed was again visually confirmed.
To confirm that the natural desiccation process that occurs during seed maturation would in fact allow for the excision of DsRed and resistance to glyphosate, seeds collected from T0 plants crossed with wild-type PHR03 pollen were germinated in soil. By planting seeds straight to soil without any treatments, excision would be a result of natural processes.
Three random events were chosen to be tested by this method. Five mature T1 seeds each from the following events, PHP54353 T0 event numbers 6, 7, and 10 were placed in small pots with Metro Mix soil (Sun Gro Horticulture, McFarland, Calif.) with fertilizer and placed in the greenhouse. After plants had germinated and grown to about 12-18 cm (10-12 days after planting), the plants were then sprayed with glyphosate+surfactant at 2× or 4× concentration (1× is equivalent to what is used in the field). Before spraying, all pots were evenly spaced and positioned to ensure that they would receive an even distribution of glyphosate. The distance between the sprayer nozzle and the apical meristem of the plants was approximately 18 inches. Within 10-12 days, it was visibly evident which plants were not affected by the herbicide and which plants had been severely damaged.

O=C(O)CNCP(=O)(O)O [glyphosate, N-phosphonomethylglycine]
germination (soybean seeds): completely inhibited | Glyphosate Spray Test (sugarcane plants; independent T0 events (PHP54561, after excision) from 3 sugarcane cultivars): strong glyphosate resistance | Glyphosate Spray Test (sugarcane plants; plants of 3 nontransgenic sugarcane cultivars): completely killed | germination (tobacco seeds): completely inhibited | Glyphosate Spray Test ([1]; PHP54353 lab event 6 T1 plants, fraction of plants tolerant): 2/4 plants tolerant | Glyphosate Spray Test ([1]; PHP54353 lab event 7 T1 plants): 5/5 plants damaged | Glyphosate Spray Test ([1]; PHP54353 lab event 10 T1 plants): 4/4 plants damaged | Glyphosate Spray Test ([1]; PHP54353 lab event 13 T1 plants, fraction of plants tolerant): 2/5 plants tolerant | Glyphosate Spray Test ([1]; Wild-type PHR03 plants): 4/4 plants damaged
